According to ChEMBL document CHEMBL3045968, “Antitumor activities of some new 1,3,2-oxaza- and 1,3,2-diazaphosphorinanes against K562, MDA-MB-231, and HepG2 cells” (Med Chem Res, 2012):

Columns and labels:
[1] = test system: MDA-MB-231; test: cells; conditions: Homo sapiens, MDA-MB-231, 48 h
Description: Cytotoxicity against Homo sapiens (human) MDA-MB-231 cells after 48 hr by MTT assay

[2] = test system: HepG2; test: cells; conditions: Homo sapiens, HepG2, 48 h
Description: Cytotoxicity against Homo sapiens (human) HepG2 cells after 48 hr by MTT assay

[3] = test system: K562; test: cells; conditions: Homo sapiens, K562, 48 h
Description: Cytotoxicity against Homo sapiens (human) K562 cells after 48 hr by MTT assay

[4] = physchem; conditions: octanol/water
Description: Lipophilicity, log P of the compound

[5] = octanol/water
Description: Lipophilicity, log P of the compound

SMILES	IC50 [1] [nM]	IC50 [2] [nM]	IC50 [3] [nM]	logP [4]	logP [5]
Cc1ccc(OP2(=O)NCCCO2)cc1 (stereo not drawn)	870	590	710	0.76	
O=P1(Nc2ccccc2)NCCCO1 (stereo not drawn)	830	600	550	0.29	
NS(=O)(=O)c1ccc(NP2(=O)NCCCN2)cc1	110	130	190	1.56	
O=[N+]([O-])c1ccc(NP2(=O)NCCCO2)cc1 (stereo not drawn)	90	150	890	-0.53	
O=P1(N(CCCl)CCCl)NCCCO1 (stereo not drawn) [CYCLOPHOSPHAMIDE ANHYDROUS]	90	240	150		
NS(=O)(=O)c1ccc(NP2(=O)NCCCO2)cc1 (stereo not drawn)	170	140	150	1.88	
COc1ccc(NP2(=O)NCCCO2)cc1 (stereo not drawn)	230	60	200	-0.71	
CC1(C)CNP(=O)(Nc2ccccc2)NC1	2040	3170	3110	-0.03	
Nc1ccc(S(N)(=O)=O)cc1 [SULFANILAMIDE]	90	80	200		
Cc1ccc(OP2(=O)NCC(C)(C)CN2)cc1	230	2200	1440		0.12
